Results published in ChEMBL document CHEMBL3885881, “DrugMatrix”.

Species: Rattus norvegicus
Test: DrugMatrix - Regimen: Daily Repeat
Type: toxicity, organism-based, Sprague-Dawley
Design: regimen Daily Repeat, gender Male, age 6-8 weeks
Conditions: in vivo, po, route oral GAVAGE, vehicle 100 % WATER; for ABSOLUTE BASOPHIL / ABSOLUTE EOSINOPHIL / ABSOLUTE LYMPHOCYTE / ABSOLUTE MONOCYTE / ABSOLUTE SEGMENTED NEUTROPHIL / BASOPHIL / EOSINOPHIL / ERYTHROCYTE COUNT / HEMATOCRIT / HEMOGLOBIN / LEUKOCYTE COUNT / LYMPHOCYTE / MEAN CORPUSCULAR HEMOGLOBIN / MEAN CORPUSCULAR HEMOGLOBIN CONCENTRATION / MEAN CORPUSCULAR VOLUME / MONOCYTE / NEUTROPHIL / NUCLEATED RED BLOOD CELLS / PLATELET COUNT: tissue Blood; for ALANINE AMINOTRANSFERASE / ALBUMIN / ALKALINE PHOSPHATASE / ASPARTATE AMINOTRANSFERASE / BLOOD UREA NITROGEN / CARBON DIOXIDE / CHLORIDE / CHOLESTEROL / CREATINE PHOSPHOKINASE / CREATININE / GLUCOSE / LACTATE DEHYDROGENASE / LIPASE / PHOSPHORUS / POTASSIUM / SODIUM / TOTAL BILIRUBIN / TOTAL PROTEIN / URIC ACID: tissue Plasma
[1] = 120 mg/kg, 120 h, dose level Low, time 5 day
[2] = 1695 mg/kg, 72 h, dose level High, time 3 day
[3] = 1695 mg/kg, 120 h, dose level High, time 5 day

SMILES: Nc1ccc(S(=O)(=O)Nc2ccnn2-c2ccccc2)cc1 [SULFAPHENAZOLE]
- ABSOLUTE BASOPHIL [1]: 0 CELLS/uL
- ABSOLUTE EOSINOPHIL [1]: 0 CELLS/uL
- ABSOLUTE LYMPHOCYTE [1]: 12168 CELLS/uL
- ABSOLUTE MONOCYTE [1]: 171.33 CELLS/uL
- ABSOLUTE SEGMENTED NEUTROPHIL [1]: 1260.67 CELLS/uL
- BASOPHIL [1]: 0%
- EOSINOPHIL [1]: 0%
- ERYTHROCYTE COUNT [1]: 5.32 x10E6/uL
- HEMATOCRIT [1]: 32.93%
- HEMOGLOBIN [1]: 13.2 G/DL
- LEUKOCYTE COUNT [1]: 13.6 x10E3/uL
- LYMPHOCYTE [1]: 88.67%
- MEAN CORPUSCULAR HEMOGLOBIN [1]: 24.8 pg
- MEAN CORPUSCULAR HEMOGLOBIN CONCENTRATION [1]: 40.07 G/DL
- MEAN CORPUSCULAR VOLUME [1]: 61.87 fL
- MONOCYTE [1]: 1.33%
- NEUTROPHIL [1]: 10%
- NUCLEATED RED BLOOD CELLS [1]: 0 /100WBC
- PLATELET COUNT [1]: 1135.33 x10E3/uL
- ALANINE AMINOTRANSFERASE [1]: 44 u/L
- ALBUMIN [1]: 4.37 G/DL
- ALKALINE PHOSPHATASE [1]: 314.33 u/L
- ASPARTATE AMINOTRANSFERASE [1]: 85.33 u/L
- BLOOD UREA NITROGEN [1]: 17.67 mg/dL
- CARBON DIOXIDE [1]: 25 mmol/L
- CHLORIDE [1]: 101.67 MEQ/L
- CHOLESTEROL [1]: 55.33 mg/dL
- CREATINE PHOSPHOKINASE [1]: 560.67 u/L
- CREATININE [1]: 0.19 mg/dL
- GLUCOSE [1]: 147.33 mg/dL
- LACTATE DEHYDROGENASE [1]: 243.67 u/L
- LIPASE [1]: 10.67 u/L
- PHOSPHORUS [1]: 11.43 mg/dL
- POTASSIUM [1]: 6.3 MEQ/L
- SODIUM [1]: 141.23 MEQ/L
- TOTAL BILIRUBIN [1]: 0.17 mg/dL
- TOTAL PROTEIN [1]: 5.93 G/DL
- URIC ACID [1]: 1.83 mg/dL
- ABSOLUTE BASOPHIL [2]: 0 CELLS/uL
- ABSOLUTE EOSINOPHIL [2]: 148.67 CELLS/uL
- ABSOLUTE LYMPHOCYTE [2]: 12946.33 CELLS/uL
- ABSOLUTE MONOCYTE [2]: 179 CELLS/uL
- ABSOLUTE SEGMENTED NEUTROPHIL [2]: 1226 CELLS/uL
- BASOPHIL [2]: 0%
- EOSINOPHIL [2]: 1%
- ERYTHROCYTE COUNT [2]: 6.24 x10E6/uL
- HEMATOCRIT [2]: 37.43%
- HEMOGLOBIN [2]: 14.4 G/DL
- LEUKOCYTE COUNT [2]: 14.5 x10E3/uL
- LYMPHOCYTE [2]: 89.33%
- MEAN CORPUSCULAR HEMOGLOBIN [2]: 23.1 pg
- MEAN CORPUSCULAR HEMOGLOBIN CONCENTRATION [2]: 38.5 G/DL
- MEAN CORPUSCULAR VOLUME [2]: 60.03 fL
- MONOCYTE [2]: 1.33%
- NEUTROPHIL [2]: 8.33%
- NUCLEATED RED BLOOD CELLS [2]: 0.33 /100WBC
- PLATELET COUNT [2]: 1221 x10E3/uL
- ALANINE AMINOTRANSFERASE [2]: 93.67 u/L
- ALBUMIN [2]: 4.27 G/DL
- ALKALINE PHOSPHATASE [2]: 470.33 u/L
- ASPARTATE AMINOTRANSFERASE [2]: 97.33 u/L
- BLOOD UREA NITROGEN [2]: 20 mg/dL
- CARBON DIOXIDE [2]: 28.67 mmol/L
- CHLORIDE [2]: 98 MEQ/L
- CHOLESTEROL [2]: 66 mg/dL
- CREATINE PHOSPHOKINASE [2]: 349 u/L
- CREATININE [2]: 0.24 mg/dL
- GLUCOSE [2]: 138 mg/dL
- LACTATE DEHYDROGENASE [2]: 231 u/L
- LIPASE [2]: 12 u/L
- PHOSPHORUS [2]: 11.17 mg/dL
- POTASSIUM [2]: 6.38 MEQ/L
- SODIUM [2]: 138.87 MEQ/L
- TOTAL BILIRUBIN [2]: 0.17 mg/dL
- TOTAL PROTEIN [2]: 5.9 G/DL
- URIC ACID [2]: 1.43 mg/dL
- ABSOLUTE BASOPHIL [3]: 0 CELLS/uL
- ABSOLUTE EOSINOPHIL [3]: 0 CELLS/uL
- ABSOLUTE LYMPHOCYTE [3]: 12966.33 CELLS/uL
- ABSOLUTE MONOCYTE [3]: 311 CELLS/uL
- ABSOLUTE SEGMENTED NEUTROPHIL [3]: 1656 CELLS/uL
- BASOPHIL [3]: 0%
- EOSINOPHIL [3]: 0%
- ERYTHROCYTE COUNT [3]: 5.99 x10E6/uL
- HEMATOCRIT [3]: 35.5%
- HEMOGLOBIN [3]: 13.53 G/DL
- LEUKOCYTE COUNT [3]: 14.93 x10E3/uL
- LYMPHOCYTE [3]: 86.67%
- MEAN CORPUSCULAR HEMOGLOBIN [3]: 22.57 pg
- MEAN CORPUSCULAR HEMOGLOBIN CONCENTRATION [3]: 38.1 G/DL
- MEAN CORPUSCULAR VOLUME [3]: 59.27 fL
- MONOCYTE [3]: 2%
- NEUTROPHIL [3]: 11.33%
- NUCLEATED RED BLOOD CELLS [3]: 0 /100WBC
- PLATELET COUNT [3]: 1318 x10E3/uL
- ALANINE AMINOTRANSFERASE [3]: 117.33 u/L
- ALBUMIN [3]: 4.47 G/DL
- ALKALINE PHOSPHATASE [3]: 435.33 u/L
- ASPARTATE AMINOTRANSFERASE [3]: 99.67 u/L
- BLOOD UREA NITROGEN [3]: 16.33 mg/dL
- CARBON DIOXIDE [3]: 25 mmol/L
- CHLORIDE [3]: 99 MEQ/L
- CHOLESTEROL [3]: 48 mg/dL
- CREATINE PHOSPHOKINASE [3]: 444.33 u/L
- CREATININE [3]: 0.22 mg/dL
- GLUCOSE [3]: 150.33 mg/dL
- LACTATE DEHYDROGENASE [3]: 121.33 u/L
- LIPASE [3]: 12 u/L
- PHOSPHORUS [3]: 11.27 mg/dL
- POTASSIUM [3]: 5.55 MEQ/L
- SODIUM [3]: 141.73 MEQ/L
- TOTAL BILIRUBIN [3]: 0.23 mg/dL
- TOTAL PROTEIN [3]: 5.87 G/DL
- URIC ACID [3]: 1.37 mg/dL
